# Test results taken from paper PMC8414988 (Pediatric blood & cancer, 2021).
# Assay: Adverse events graded by NCI CTCAE v4.0, all reported regardless of attribution
# Assay type: in vivo, human
structure (smiles),measurement,setting,value
CC(=O)c1c(C)c2cnc(Nc3ccc(N4CCNCC4)cn3)nc2n(C2CCCC2)c1=O [palbociclib],most common toxicity,Stratum I and II,myelosuppression
same,"Alanine aminotransferase increased, episodes","Stratum I, grade 1",4(4)
same,"Alanine aminotransferase increased, patients","Stratum I, grade 1",4(4)
same,"Anemia, episodes","Stratum I, grade 1",7
same,"Anemia, patients","Stratum I, grade 1",5
same,"Ataxia, episodes","Stratum I, grade 1",1(1)
same,"Ataxia, patients","Stratum I, grade 1",1(1)
same,"Constipation, episodes","Stratum I, grade 1",8
same,"Constipation, patients","Stratum I, grade 1",6
same,"Diarrhea, episodes","Stratum I, grade 1",4
same,"Diarrhea, patients","Stratum I, grade 1",3
same,"Dry skin, episodes","Stratum I, grade 1",3(3)
same,"Dry skin, patients","Stratum I, grade 1",3(3)
same,"Fatigue, episodes","Stratum I, grade 1",7(7)
same,"Fatigue, patients","Stratum I, grade 1",7(7)
same,"Headache, episodes","Stratum I, grade 1",4
same,"Headache, patients","Stratum I, grade 1",3
same,"Hypokalemia, episodes","Stratum I, grade 1",5
same,"Hypokalemia, patients","Stratum I, grade 1",4
same,"Lymphocyte count decreased, episodes","Stratum I, grade 1",22
same,"Lymphocyte count decreased, patients","Stratum I, grade 1",8
same,"Mucositis oral, episodes","Stratum I, grade 1",5
same,"Mucositis oral, patients","Stratum I, grade 1",2
same,"Nausea, episodes","Stratum I, grade 1",4
same,"Nausea, patients","Stratum I, grade 1",3
same,"Neutrophil count decreased, episodes","Stratum I, grade 1",8
same,"Neutrophil count decreased, patients","Stratum I, grade 1",5
same,"Platelet count decreased, episodes","Stratum I, grade 1",28
same,"Platelet count decreased, patients","Stratum I, grade 1",10
same,"Vomiting, episodes","Stratum I, grade 1",5
same,"Vomiting, patients","Stratum I, grade 1",4
same,"White blood cell decreased, episodes","Stratum I, grade 1",14
same,"White blood cell decreased, patients","Stratum I, grade 1",9
same,"Anemia, episodes","Stratum I, grade 2",2(2)
same,"Anemia, patients","Stratum I, grade 2",2(2)
same,"Ataxia, episodes","Stratum I, grade 2",3(3)
same,"Ataxia, patients","Stratum I, grade 2",3(3)
same,"Fatigue, episodes","Stratum I, grade 2",3(3)
same,"Fatigue, patients","Stratum I, grade 2",3(3)
same,"Gait disturbance, episodes","Stratum I, grade 2",2(2)
same,"Gait disturbance, patients","Stratum I, grade 2",2(2)
same,"Headache, episodes","Stratum I, grade 2",3
same,"Headache, patients","Stratum I, grade 2",2
same,"Hypokalemia, episodes","Stratum I, grade 2",1(1)
same,"Hypokalemia, patients","Stratum I, grade 2",1(1)
same,"Lymphocyte count decreased, episodes","Stratum I, grade 2",17
same,"Lymphocyte count decreased, patients","Stratum I, grade 2",4
same,"Mucositis oral, episodes","Stratum I, grade 2",5
same,"Mucositis oral, patients","Stratum I, grade 2",2
same,"Nausea, episodes","Stratum I, grade 2",1(1)
same,"Nausea, patients","Stratum I, grade 2",1(1)
same,"Neutrophil count decreased, episodes","Stratum I, grade 2",26
same,"Neutrophil count decreased, patients","Stratum I, grade 2",7
same,"Vomiting, episodes","Stratum I, grade 2",1(1)
same,"Vomiting, patients","Stratum I, grade 2",1(1)
same,"White blood cell decreased, episodes","Stratum I, grade 2",37
same,"White blood cell decreased, patients","Stratum I, grade 2",14
same,"Ataxia, episodes","Stratum I, grade 3",1(1)
same,"Ataxia, patients","Stratum I, grade 3",1(1)
same,"Gait disturbance, episodes","Stratum I, grade 3",1(1)
same,"Gait disturbance, patients","Stratum I, grade 3",1(1)
same,"Lymphocyte count decreased, episodes","Stratum I, grade 3",12
same,"Lymphocyte count decreased, patients","Stratum I, grade 3",7
same,"Muscle weakness left-sided, episodes","Stratum I, grade 3",3(3)
same,"Muscle weakness left-sided, patients","Stratum I, grade 3",3(3)
same,"Nausea, episodes","Stratum I, grade 3",1(1)
same,"Nausea, patients","Stratum I, grade 3",1(1)
same,"Neutrophil count decreased, episodes","Stratum I, grade 3",27
same,"Neutrophil count decreased, patients","Stratum I, grade 3",9
same,"Vomiting, episodes","Stratum I, grade 3",1(1)
same,"Vomiting, patients","Stratum I, grade 3",1(1)
same,"White blood cell decreased, episodes","Stratum I, grade 3",19
same,"White blood cell decreased, patients","Stratum I, grade 3",3
same,"Neutrophil count decreased, episodes","Stratum I, grade 4",3(3)
same,"Neutrophil count decreased, patients","Stratum I, grade 4",3(3)
same,"Alanine aminotransferase increased, episodes","Stratum I, overall",4(4)
same,"Alanine aminotransferase increased, patients","Stratum I, overall",4(4)
same,"Anemia, episodes","Stratum I, overall",9
same,"Anemia, patients","Stratum I, overall",7
same,"Ataxia, episodes","Stratum I, overall",5(5)
same,"Ataxia, patients","Stratum I, overall",5(5)
same,"Constipation, episodes","Stratum I, overall",8
same,"Constipation, patients","Stratum I, overall",6
same,"Diarrhea, episodes","Stratum I, overall",4
same,"Diarrhea, patients","Stratum I, overall",3
same,"Dry skin, episodes","Stratum I, overall",3(3)
same,"Dry skin, patients","Stratum I, overall",3(3)
same,"Fatigue, episodes","Stratum I, overall",10
same,"Fatigue, patients","Stratum I, overall",9
same,"Gait disturbance, episodes","Stratum I, overall",3(3)
same,"Gait disturbance, patients","Stratum I, overall",3(3)
same,"Headache, episodes","Stratum I, overall",7
same,"Headache, patients","Stratum I, overall",4
same,"Hypokalemia, episodes","Stratum I, overall",6
same,"Hypokalemia, patients","Stratum I, overall",5
same,"Lymphocyte count decreased, episodes","Stratum I, overall",51
same,"Lymphocyte count decreased, patients","Stratum I, overall",13
same,"Mucositis oral, episodes","Stratum I, overall",10
same,"Mucositis oral, patients","Stratum I, overall",3
same,"Muscle weakness left-sided, episodes","Stratum I, overall",3(3)
same,"Muscle weakness left-sided, patients","Stratum I, overall",3(3)
same,"Nausea, episodes","Stratum I, overall",6
same,"Nausea, patients","Stratum I, overall",3
same,"Neutrophil count decreased, episodes","Stratum I, overall",64
same,"Neutrophil count decreased, patients","Stratum I, overall",15
same,"Platelet count decreased, episodes","Stratum I, overall",28
same,"Platelet count decreased, patients","Stratum I, overall",10
same,"Vomiting, episodes","Stratum I, overall",7
same,"Vomiting, patients","Stratum I, overall",5
same,"White blood cell decreased, episodes","Stratum I, overall",70
same,"White blood cell decreased, patients","Stratum I, overall",17
same,"Alanine aminotransferase increased, episodes","Stratum II, grade 1",3
same,"Alanine aminotransferase increased, patients","Stratum II, grade 1",2
same,"Anemia, episodes","Stratum II, grade 1",17
same,"Anemia, patients","Stratum II, grade 1",9
same,"Anorexia, episodes","Stratum II, grade 1",3(3)
same,"Anorexia, patients","Stratum II, grade 1",3(3)
same,"Aspartate aminotransferase increased, episodes","Stratum II, grade 1",2(2)
same,"Aspartate aminotransferase increased, patients","Stratum II, grade 1",2(2)
same,"Constipation, episodes","Stratum II, grade 1",1(1)
same,"Constipation, patients","Stratum II, grade 1",1(1)
same,"Dizziness, episodes","Stratum II, grade 1",3
same,"Dizziness, patients","Stratum II, grade 1",2
same,"Electrocardiogram qt corrected interval prolonged, episodes","Stratum II, grade 1",3
same,"Electrocardiogram qt corrected interval prolonged, patients","Stratum II, grade 1",2
same,"Fatigue, episodes","Stratum II, grade 1",2(2)
same,"Fatigue, patients","Stratum II, grade 1",2(2)
same,"Headache, episodes","Stratum II, grade 1",1(1)
same,"Headache, patients","Stratum II, grade 1",1(1)
same,"Hypercalcemia, episodes","Stratum II, grade 1",2(2)
same,"Hypercalcemia, patients","Stratum II, grade 1",2(2)
same,"Hyperkalemia, episodes","Stratum II, grade 1",2(2)
same,"Hyperkalemia, patients","Stratum II, grade 1",2(2)
same,"Hypokalemia, episodes","Stratum II, grade 1",3(3)
same,"Hypokalemia, patients","Stratum II, grade 1",3(3)
same,"Lymphocyte count decreased, episodes","Stratum II, grade 1",10
same,"Lymphocyte count decreased, patients","Stratum II, grade 1",5
same,"Mucositis oral, episodes","Stratum II, grade 1",1(1)
same,"Mucositis oral, patients","Stratum II, grade 1",1(1)
same,"Neutrophil count decreased, episodes","Stratum II, grade 1",6
same,"Neutrophil count decreased, patients","Stratum II, grade 1",4
same,"Pain, episodes","Stratum II, grade 1",1(1)
same,"Pain, patients","Stratum II, grade 1",1(1)
same,"Platelet count decreased, episodes","Stratum II, grade 1",16
same,"Platelet count decreased, patients","Stratum II, grade 1",8
same,"Vomiting, episodes","Stratum II, grade 1",5
same,"Vomiting, patients","Stratum II, grade 1",3
same,"White blood cell decreased, episodes","Stratum II, grade 1",13
same,"White blood cell decreased, patients","Stratum II, grade 1",5
same,"Anemia, episodes","Stratum II, grade 2",3(3)
same,"Anemia, patients","Stratum II, grade 2",3(3)
same,"Constipation, episodes","Stratum II, grade 2",2
same,"Constipation, patients","Stratum II, grade 2",1
same,"Dizziness, episodes","Stratum II, grade 2",1(1)
same,"Dizziness, patients","Stratum II, grade 2",1(1)
same,"Fatigue, episodes","Stratum II, grade 2",2(2)
same,"Fatigue, patients","Stratum II, grade 2",2(2)
same,"Headache, episodes","Stratum II, grade 2",1(1)
same,"Headache, patients","Stratum II, grade 2",1(1)
same,"Lymphocyte count decreased, episodes","Stratum II, grade 2",6
same,"Lymphocyte count decreased, patients","Stratum II, grade 2",3
same,"Mucositis oral, episodes","Stratum II, grade 2",1(1)
same,"Mucositis oral, patients","Stratum II, grade 2",1(1)
same,"Neutrophil count decreased, episodes","Stratum II, grade 2",19
same,"Neutrophil count decreased, patients","Stratum II, grade 2",10
same,"Platelet count decreased, episodes","Stratum II, grade 2",5
same,"Platelet count decreased, patients","Stratum II, grade 2",3
same,"White blood cell decreased, episodes","Stratum II, grade 2",18
same,"White blood cell decreased, patients","Stratum II, grade 2",9
same,"Headache, episodes","Stratum II, grade 3",2(2)
same,"Headache, patients","Stratum II, grade 3",2(2)
same,"Lymphocyte count decreased, episodes","Stratum II, grade 3",3(3)
same,"Lymphocyte count decreased, patients","Stratum II, grade 3",3(3)
same,"Neutrophil count decreased, episodes","Stratum II, grade 3",13
same,"Neutrophil count decreased, patients","Stratum II, grade 3",9
same,"Pain, episodes","Stratum II, grade 3",1(1)
same,"Pain, patients","Stratum II, grade 3",1(1)
same,"Platelet count decreased, episodes","Stratum II, grade 3",2(2)
same,"Platelet count decreased, patients","Stratum II, grade 3",2(2)
same,"Seizure, episodes","Stratum II, grade 3",3(3)
same,"Seizure, patients","Stratum II, grade 3",3(3)
same,"Vomiting, episodes","Stratum II, grade 3",1(1)
same,"Vomiting, patients","Stratum II, grade 3",1(1)
same,"White blood cell decreased, episodes","Stratum II, grade 3",7
same,"White blood cell decreased, patients","Stratum II, grade 3",6
same,"Neutrophil count decreased, episodes","Stratum II, grade 4",1(1)
same,"Neutrophil count decreased, patients","Stratum II, grade 4",1(1)
same,"Platelet count decreased, episodes","Stratum II, grade 4",1(1)
same,"Platelet count decreased, patients","Stratum II, grade 4",1(1)
same,"Alanine aminotransferase increased, episodes","Stratum II, overall",3
same,"Alanine aminotransferase increased, patients","Stratum II, overall",2
same,"Anemia, episodes","Stratum II, overall",20
same,"Anemia, patients","Stratum II, overall",10
same,"Anorexia, episodes","Stratum II, overall",3(3)
same,"Anorexia, patients","Stratum II, overall",3(3)
same,"Aspartate aminotransferase increased, episodes","Stratum II, overall",2(2)
same,"Aspartate aminotransferase increased, patients","Stratum II, overall",2(2)
same,"Constipation, episodes","Stratum II, overall",3
same,"Constipation, patients","Stratum II, overall",2
same,"Dizziness, episodes","Stratum II, overall",4
same,"Dizziness, patients","Stratum II, overall",3
same,"Electrocardiogram qt corrected interval prolonged, episodes","Stratum II, overall",3
same,"Electrocardiogram qt corrected interval prolonged, patients","Stratum II, overall",2
same,"Fatigue, episodes","Stratum II, overall",4(4)
same,"Fatigue, patients","Stratum II, overall",4(4)
same,"Headache, episodes","Stratum II, overall",4(4)
same,"Headache, patients","Stratum II, overall",4(4)
same,"Hypercalcemia, episodes","Stratum II, overall",2(2)
same,"Hypercalcemia, patients","Stratum II, overall",2(2)
same,"Hyperkalemia, episodes","Stratum II, overall",2(2)
same,"Hyperkalemia, patients","Stratum II, overall",2(2)
same,"Hypokalemia, episodes","Stratum II, overall",3(3)
same,"Hypokalemia, patients","Stratum II, overall",3(3)
same,"Lymphocyte count decreased, episodes","Stratum II, overall",19
same,"Lymphocyte count decreased, patients","Stratum II, overall",7
same,"Mucositis oral, episodes","Stratum II, overall",2(2)
same,"Mucositis oral, patients","Stratum II, overall",2(2)
same,"Neutrophil count decreased, episodes","Stratum II, overall",39
same,"Neutrophil count decreased, patients","Stratum II, overall",11
same,"Pain, episodes","Stratum II, overall",2(2)
same,"Pain, patients","Stratum II, overall",2(2)
same,"Platelet count decreased, episodes","Stratum II, overall",24
same,"Platelet count decreased, patients","Stratum II, overall",8
same,"Seizure, episodes","Stratum II, overall",3(3)
same,"Seizure, patients","Stratum II, overall",3(3)
same,"Vomiting, episodes","Stratum II, overall",6
same,"Vomiting, patients","Stratum II, overall",4
same,"White blood cell decreased, episodes","Stratum II, overall",38
same,"White blood cell decreased, patients","Stratum II, overall",11
